Assay results published in patent US8232408B2, “Crystalline 1-(3-fluorophenyl)-5-methyl-2-(1H)pyridone, the preparation methods, compositions and applications thereof” (Sunshine Lake Pharma Co., Ltd., priority 2008, dated 2012).
Converted amounts (≈) assume the structure as drawn. Where two headings read alike, the source gives them in different places.

Columns and labels:
[1] = Solubility measurement: excess sample shaken in purified water for 48 hours, filtered supernatant measured; format: physicochemical; settings: thermodynamic from solid, shaken 48 hours
Description: Solubility measurement: excess crystalline FFD solid dispersion was put into a cone-shaped bottle with a stopper. After 100 ml purified water was added, the solution was shaken at a constant of 25° C. and 37° C. separately for 48 hours. The filtered supernatants were diluted and their concentrations were measured thrice for each sample.

[2] = Solubility per "Testing Method For Determining The Solubility", Chinese Pharmacopoeia 2005; format: physicochemical; settings: 25±1° C., water
From the text: (Testing method is according to the “Testing Method For Determining The Solubility” in The Chinese Pharmacopoeia 2005, the example section of the second part, the last line on the first page to the first line on the second.)
2. […] It can ensure that the drug can be steadily released after taking orally. The drug can mix with one's internal environment easily after release, which renders the steady absorption of the drug, and the achievement of a relatively stable bioavailability.

renal interstitial cell = settings: cited from earlier work

Row | solubility at 48 h ([1]; 25° C.) [µg/mL] | solubility at 48 h ([1]; 37° C.) [µg/mL] | solubility [2] | solubility ([2]; 25 °C, thermodynamic from solid, read-out: solubility) [µg/mL] | Structure (SMILES) | effect on anti-fibrosis (renal interstitial cell)
1 | 2440 to 2550 (≈ 12 to 12.5 mM) | 3140 to 3160 | 2.44˜2.55 mg/ml | – | Cc1ccc(=O)n(-c2cccc(F)c2)c1 [crystalline FFD, 1-(3-fluorophenyl)-5-methyl-2-(1H)-pyridone] | –
2 | – | – | – | 1410 to 1490 (≈ 6.94 to 7.33 mM) | Cc1ccc(=O)n(-c2cccc(F)c2)c1 [FFD, 1-(3-fluorophenyl)-5-methyl-2-(1H)-pyridone] | good effect on anti-fibrosis
